Columns and labels:
ryegrass [1] = system: ryegrass
Source text: For example, when converting from overseeded ryegrass turf to perennial bermudagrass in the spring season, sublethal doses of Sapphire herbicide (or other ryegrass-removal herbicides) are applied to cause the ryegrass to slowly fade away. […] In other aspects, a method of enhancing color and quality of a turf including the cool-season turfgrass species comprises co-administering Simazine with Penoxsulam or other ryegrass-removal herbicides to the turf comprising the cool-season turfgrass species. In such implementations, a sub-lethal dosage application of Simazine in relation to the desirable cool-season turfgrass species is co-administered with Penoxsulam or other ryegrass-removal herbicides.

[2] = system: seashore Paspalum (Paspalum vaginatum); test: Selective control of seashore Paspalum in bermudagrass turf; format: in vivo; details: single application 0.5 lb AI/A
Source text: (§1) Bermudagrass and seashore Paspalum (Paspalum vaginatum) are both warm-season turfgrasses. However, when one species is desired, often the other species is found to contaminate the desired species. When seashore Paspalum contaminates bermudagrass, the result is undesirable. It was discovered that Simazine may be used to selectively remove the seashore Paspalum because bermudagrass is much more tolerant of Simazine than is seashore Paspalum.

[3] = system: annual bluegrass (Poa annua); test: Field trial: control of annual bluegrass in ryegrass turf; format: in vivo
Description: Unless noted otherwise, the data and results shown herein are from trials performed in Phoenix, AZ and would be representative of application of the methods described herein in a hot climate. […] The tests were conducted according to standards required by the U.S. Environmental Protection Agency for evaluating herbicides.
FIG. 1A depicts a ryegrass/annual bluegrass turf test area that was subjected to four treatments. Initial treatments were made in December. Treatment area #1 received a low application rate (0.25 lb AI/A) of Simazine followed by a second low rate application one month later. Treatment area #2 received two medium rate (0.5 lb AI/A) applications on the same schedule as treatment area #1. Treatment area #3 received a single medium rate application. Treatment area #4 received no Simazine applications. The test area was evaluated 90 days after the first application as shown in FIG. 1A and the quantification data is presented in FIG. 1B.
FIG. 2B represents a single application at 0.75 lb AI/A using the 90DF formulation. […] FIG. 3A compares single application of application rates of 0.25 lb AI/A, 0.5 lb AI/A, 0.75 lb AI/A, and 1.0 lb AI/A at 86 days after treatment. FIG. 3B quantifies the percentage of annual bluegrass coverage on the test turf at 79 days after treatment.

bermudagrass = test: Tolerance of bermudagrass turf; format: in vivo; details: single application 0.5 lb AI/A
Source text: as §1

[4] = system: annual bluegrass (Poa annua); test: Suppression of annual bluegrass flowers and seedheads in ryegrass turf; format: in vivo
Source text: The test turfs shown in FIGS. 9A and 9B are ryegrass turfs infested with Poa annua that received two applications of Simazine at a rate of 0.25 lb AI/A per application.
However, applying a sub-lethal dosage of Simazine in relation to annual bluegrass still improves the quality of the turf comprising cool-season turfgrasses. Using applications that are sub-lethal to annual bluegrass (at least in the near term), simazine treatment suppresses the production of annual bluegrass flowers and seedheads rendering the turf more desirable.
The #1 plot in FIG. 8A was treated with Simazine (0.25 lb AI/A). […] The other areas were untreated and the annual bluegrass there produced prolific flowers and seedheads. FIGS. 9A and 9B show multiple applications made to ryegrass turf infested with Poa annua.

[5] = system: annual bluegrass (Poa annua); test: Field trial: control of annual bluegrass in bentgrass turf; format: in vivo
Source text: Bentgrass turfgrass species are more sensitive to Simazine application than ryegrass. […] While there was still a large presence of annual bluegrass at 13 days after treatment, the patch of annual bluegrass is visibly ill (FIG. 7A).

ryegrass [6] = test: Safety to ryegrass seeded after treatment of bermudagrass turf; format: in vivo; details: applied four days prior to planting ryegrass; 43 days after seeding
Source text: Simazine may also be applied during the transition of a turf from warm-season turfgrass species to cool-season turfgrass species. Simazine is not injurious to desired cool-season turfgrasses when applied prior to planting seed. FIG. 11A show soon-to-be-dormant bermudagrass turf treated with simazine four days prior to planting ryegrass into the turf.

annual bluegrass = test: Test turf in a cool high-altitude climate; format: in vivo, Poa annua
Description: FIG. 10 is a photograph of a test turf in a cool high-altitude climate.
(§2) Unless noted otherwise, the data and results shown herein are from trials performed in Phoenix, AZ and would be representative of application of the methods described herein in a hot climate. However, Simazine is effective in management of annual bluegrass infestation in a turf comprising cool-season turfgrass species in cool, high-altitude climates as well as in hot climates (see FIG. 10). The tests were conducted according to standards required by the U.S. Environmental Protection Agency for evaluating herbicides.

Poa annua = test: Field trial: control of Poa annua in turf comprising cool-season turfgrasses, multiple low-rate applications; format: in vivo; details: multiple applications at rates as low as 0.05 lbs AI/A; no photo documentation
Description: as §2
However, multiple applications of lower rates may provide greater safety to the ryegrass than a higher rate single application even though both may effectively control the annual bluegrass (FIGS. 4A-6B). Multiple applications of Simazine at lower rates reduce the risk of overdosing the desirable cool-season turfgrass due to application overlaps, which occur often during turf treatments.

[7] = system: annual bluegrass (Poa annua); test: Co-administration with ryegrass-weakening herbicides A and B on ryegrass turf infested with Poa annua; format: in vivo; details: Simazine mixed with herbicide A or B; 60 days after treatment
Source text: Herbicides A and B were applied at low dosages to weaken the existing ryegrass turf which was infested with Poa annua. Poa annua is not sensitive to either A or B. As shown in the untreated section, Poa annua would otherwise proliferate during the herbicidal treatment at 60 days after treatment, but co-administration with Simazine prevents Poa annua proliferation during the herbicidal treatment.
Because annual bluegrass is not sensitive to certain herbicides used for weakening existing ryegrass, treatment with such herbicides may not be beneficial in removing the turf as the annual bluegrass would proliferate in the area. However, mixing Simazine with herbicides improves the results of the herbicidal treatments in turf removal. […] Annual bluegrass is not sensitive to either herbicide.

[8] = system: cool-season turfgrass species; test: Margin of safety on desired cool-season turfgrass species; details: in vivo
[9] = ryegrass turf, two applications of 0.25 lb AI/A (FIGS. 9A, 9B)

SMILES: COc1cnc(OC)n2nc(NS(=O)(=O)c3c(OCC(F)F)cccc3C(F)(F)F)nc12 [Sapphire, 2-(2,2-difluoroethoxy)-N-(5,8-dimethoxy-[1,2,4]triazolo[1,5-c]pyrimidin-2-yl)-6-(trifluoromethyl)benzenesulfonamide]
- colour and quality of ryegrass during conversion to bermudagrass (ryegrass [1]; sublethal doses of ryegrass-removal herbicide alone): degrades the color and quality of the ryegrass

SMILES: CCNc1nc(Cl)nc(NCC)n1 [Simazine, 6-chloro-2-N,4-N-diethyl-1,3,5-triazine-2,4-diamine]
- control of seashore Paspalum [2]: eradicate seashore Paspalum
- selective control of annual bluegrass ([3]; another site, single application 1.0 lb AI/A, 4 L formulation): selective control of annual bluegrass
- annual bluegrass coverage on the test turf ([3]; single application 0.25 lb AI/A, 79 days after treatment, untreated over 80%): 50%
- visual presence of annual bluegrass within the treated turf ([3]; single application 1.0 lb AI/A, 79 days after treatment): effectively removed visual presence of any annual bluegrass
- damage to bermudagrass (bermudagrass): not damaging bermudagrass
- colour of treated ryegrass versus untreated (ryegrass [1]; single application, 1.0 and 0.75 lb AI/A (FIGS. 2A, 2B)): deeper green color
- colour and quality of ryegrass turf during conversion to bermudagrass (ryegrass [1]; sub-lethal Simazine about 0.25 AI/A included with Sapphire treatment): enhances the color and quality of the ryegrass turf
- flowering and seedhead production in surviving annual bluegrass ([4]; plot #1 FIG. 8A, 0.25 lb AI/A): suppressed
- kill of annual bluegrass ([4]; plot #1 FIG. 8A, 0.25 lb AI/A): only a portion of the annual bluegrass was killed
- formation of flowers and seedheads [4, 9]: greatly suppressed
- kill of Poa annua [4, 9]: did not kill the Poa annua
- condition of annual bluegrass patch ([5]; 0.5 lb AI/A, 13 days after treatment): visibly ill
- coverage of the test area with annual bluegrass ([5]; 0.5 lb AI/A, 38 days after treatment): significantly reduced
- control of annual bluegrass infestation ([5]; application at 0.5 lb AI/A): effectively controlled annual bluegrass infestation
- effect on young ryegrass (ryegrass [6]): did not affect the young ryegrass
- turf colour compared to untreated turf (annual bluegrass): darker green color
- control of annual bluegrass infestation (annual bluegrass; effective dose specific to the climate): control of annual bluegrass infestation
- control of Poa annua (Poa annua): successfully controlled Poa annua
- annual bluegrass proliferation during herbicidal treatment [7]: without allowing annual bluegrass to proliferate

SMILES: CCNc1nc(Cl)nc(NC(C)C)n1 [atrazine]
- margin of safety on desired cool-season turfgrass species, compared with Simazine [8]: lesser margin of safety

Reference: patent US20240315246A1, “METHOD OF USING SIMAZINE FOR CONTROLLING ANNUAL BLUEGRASS IN COOL SEASON-TURFGRASSES” (priority 2023, published 2024)
